Results published in ChEMBL document CHEMBL5634138, “Discovery of a novel BLT2 antagonist for the treatment of inflammatory airway diseases” (Eur J Med Chem, 2023).
In brackets after ≈: the same amount, converted by molar mass. Each block holds one molecule with its values, some of them ahead of it. Activity calls are given as the source filed them. The calls are words filed in the database; no cut-off is given here.

Tests used:
[1] = Metabolic stability in mouse liver microsomes assessed as parent compound remaining measured after 30 mins in absence of […]; format: ADME, Microsome; details: read-out: Stability
[2] = Clearance in rat at 2 mg/kg, iv; format: ADME, organism-based; details: in vivo
Mus musculus [3] = experiment: Anti-asthmatic activity against OVA/LPS induced BALB/c mouse model assessed as decrease in bronchoalveolar lavage fluid (BALF) IL-5 level at 20 mg/kg, ip by ELISA method relative to control; format: functional; design: scale not given: the % may be the effect or the level left
[4] = Apparent volume of distribution in rat at 2 mg/kg, iv; format: ADME, organism-based; details: in vivo, read-out: Vd(app)
Mus musculus [5] = experiment: Anti-asthmatic activity against OVA/LPS induced BALB/c mouse model assessed as reduction in bronchial hyper-response at 10 mg/kg, ip for one hr before every challenge on day 14 to 16 and measured after 17 days relative to control; format: functional; design: scale not given: the % may be the effect or the level left; details: time 17 day
[6] = molecular target: T1, Leukotriene B4 receptor 2 (Homo sapiens, UniProt Q9NPC1); experiment: Displacement of 3H-LTB4 from human BLT2 expressed in CHO cell membrane assessed as inhibition constant incubated for 60 mins by liquid scintillation counter analysis
T1 sequence (Q9NPC1 whole entry): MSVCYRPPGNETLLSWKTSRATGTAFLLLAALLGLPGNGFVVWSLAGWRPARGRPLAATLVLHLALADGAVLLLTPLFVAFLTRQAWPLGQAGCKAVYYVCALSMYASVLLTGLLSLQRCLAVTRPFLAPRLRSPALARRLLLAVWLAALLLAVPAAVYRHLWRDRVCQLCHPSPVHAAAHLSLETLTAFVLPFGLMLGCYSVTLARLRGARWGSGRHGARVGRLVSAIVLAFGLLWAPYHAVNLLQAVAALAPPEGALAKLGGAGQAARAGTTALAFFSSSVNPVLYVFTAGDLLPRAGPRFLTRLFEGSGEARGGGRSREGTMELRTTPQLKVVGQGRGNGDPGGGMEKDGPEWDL

[7] = Metabolic stability in human liver microsomes assessed as parent compound remaining measured after 30 mins in presence of NADPH; format: ADME, Microsome; details: read-out: Stability
Mus musculus [8] = experiment: Anti-asthmatic activity against OVA/LPS induced BALB/c mouse model assessed as decrease in bronchoalveolar lavage fluid (BALF) IL-4 level at 20 mg/kg, ip by ELISA method relative to control; format: functional; design: scale not given: the % may be the effect or the level left
[9] = Metabolic stability in mouse liver microsomes assessed as parent compound remaining measured after 30 mins in absence of NADPH; format: ADME, Microsome; details: read-out: Stability
[10] = Metabolic stability in human liver microsomes assessed as parent compound remaining measured after 30 mins in absence of […]; format: ADME, Microsome; details: read-out: Stability
[11] = Tmax in rat at 20 mg/kg, po administered as solution; format: ADME, organism-based; details: in vivo
[12] = Metabolic stability in mouse liver microsomes assessed as parent compound remaining measured after 30 mins in presence of NADPH; format: ADME, Microsome; details: read-out: Stability
[13] = Metabolic stability in human liver microsomes assessed as parent compound remaining measured after 30 mins in absence of NADPH; format: ADME, Microsome; details: read-out: Stability
CHO [14] = experiment: (§1) Cytotoxicity against CHO cells assessed as inhibition of cell growth at 10 uM incubated overnight by MTS assay reltive to control; format: toxicity, cell-based, Cricetulus griseus; details: chinese hamster, cho, 10 µM
[15] = Tmax in rat at 20 mg/kg, po administered as suspension; format: ADME, organism-based; details: in vivo
[16] = molecular target: Leukotriene B4 receptor 1 (Homo sapiens) (UniProt Q15722); experiment: Antagonist activity at human BLT1 expressed in CHO cells assessed as inhibition of LTB4 induced cell migration at 10 uM measured after 3 hrs by chemotaxis assay; format: cell-based
Leukotriene B4 receptor 1 (Homo sapiens), sequence (Q15722 whole entry): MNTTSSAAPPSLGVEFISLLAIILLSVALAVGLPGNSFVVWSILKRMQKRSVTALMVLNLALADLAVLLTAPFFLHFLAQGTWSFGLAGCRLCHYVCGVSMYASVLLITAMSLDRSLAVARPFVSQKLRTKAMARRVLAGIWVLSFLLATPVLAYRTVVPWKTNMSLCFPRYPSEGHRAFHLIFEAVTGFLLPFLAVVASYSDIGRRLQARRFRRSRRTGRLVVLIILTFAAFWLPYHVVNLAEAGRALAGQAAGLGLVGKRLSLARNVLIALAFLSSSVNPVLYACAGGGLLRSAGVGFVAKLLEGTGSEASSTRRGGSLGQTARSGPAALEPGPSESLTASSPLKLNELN

[17] = Oral bioavailability in rat at 20 mg/kg administered as solution; format: ADME, organism-based; details: in vivo
[18] = Cmax in rat at 20 mg/kg, po administered as suspension; format: ADME, organism-based; details: in vivo
[19] = Oral bioavailability in rat at 20 mg/kg administered as suspension; format: ADME, organism-based; details: in vivo
[20] = AUC infinity in rat at 2 mg/kg, iv; format: ADME, organism-based; details: in vivo
Mus musculus [21] = experiment: Anti-asthmatic activity against OVA/LPS induced BALB/c mouse model assessed as decrease in bronchoalveolar lavage fluid (BALF) IL-4 level at 10 mg/kg, ip by ELISA method relative to control; format: functional; design: scale not given: the % may be the effect or the level left
Mus musculus [22] = experiment: Anti-asthmatic activity against OVA/LPS induced BALB/c mouse model assessed as decrease in bronchoalveolar lavage fluid (BALF) IL-5 level at 10 mg/kg, ip by ELISA method relative to control; format: functional; design: scale not given: the % may be the effect or the level left
[23] = AUC infinity in rat at 20 mg/kg, po administered as solution; format: ADME, organism-based; details: in vivo
Mus musculus [24] = experiment: Anti-asthmatic activity against OVA/LPS induced BALB/c mouse model assessed as decrease in bronchoalveolar lavage fluid (BALF) IL-13 level at 20 mg/kg, ip by ELISA method relative to control; format: functional; design: scale not given: the % may be the effect or the level left
CHO [25] = experiment: Inhibition of Akt phosphorylation (unknown origin) expressed in CHO cells harbouring BLT2 by Western blot analysis; format: cell-based; details: Homo sapiens
[26] = AUC infinity in rat at 20 mg/kg, po administered as suspension; format: ADME, organism-based; details: in vivo
[27] = Cmax in rat at 20 mg/kg, po administered as solution; format: ADME, organism-based; details: in vivo
Mus musculus [28] = experiment: Anti-asthmatic activity against OVA/LPS induced BALB/c mouse model assessed as decrease in bronchoalveolar lavage fluid (BALF) IL-13 level at 10 mg/kg, ip by ELISA method relative to control; format: functional; design: scale not given: the % may be the effect or the level left
[29] = Metabolic stability in mouse liver microsomes assessed as parent compound remaining measured after 30 mins in presence of […]; format: ADME, Microsome; details: read-out: Stability
[30] = Metabolic stability in human liver microsomes assessed as parent compound remaining measured after 30 mins in presence of […]; format: ADME, Microsome; details: read-out: Stability
[31] = Solubility of the compound in deionized water; format: physicochemical; details: buffer
[32] = Half life in rat at 2 mg/kg, iv; format: ADME, organism-based; details: in vivo
[33] = molecular target: T2, Leukotriene B4 receptor 2 (Mus musculus, UniProt Q9JJL9); experiment: Agonist activity at mouse BLT2 expressed in CHO cells assessed as induction of calcium accumulation; format: functional, cell-based
T2 sequence (Q9JJL9 whole entry): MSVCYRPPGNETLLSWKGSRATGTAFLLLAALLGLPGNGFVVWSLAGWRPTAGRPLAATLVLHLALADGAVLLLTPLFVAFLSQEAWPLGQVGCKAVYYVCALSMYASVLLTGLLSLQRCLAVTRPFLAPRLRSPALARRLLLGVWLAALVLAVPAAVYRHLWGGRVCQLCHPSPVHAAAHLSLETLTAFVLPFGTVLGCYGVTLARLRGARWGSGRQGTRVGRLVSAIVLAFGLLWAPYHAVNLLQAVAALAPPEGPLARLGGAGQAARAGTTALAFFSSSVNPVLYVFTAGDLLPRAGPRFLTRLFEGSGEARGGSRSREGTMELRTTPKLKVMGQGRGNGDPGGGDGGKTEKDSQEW

[34] = molecular target: T3, Leukotriene B4 receptor 2 (Mus musculus) (UniProt Q9JJL9); experiment: Displacement of 3[H]LTB4 from mouse BLT2 by competitive binding assay; details: filed as agonist
T3 sequence (whole entry): T2 sequence (Q9JJL9 whole entry)

CHO [35] = experiment: Inhibition of Akt phosphorylation (unknown origin) expressed in CHO cells harbouring BLT1 by Western blot analysis; format: cell-based; details: Homo sapiens
[36] = molecular target: Leukotriene B4 receptor 1 (Homo sapiens) (UniProt Q15722); experiment: Antagonist activity at human BLT1 expressed in CHO cells assessed as inhibition of LTB4 induced cell migration at 10 uM measured after 3 hrs by chemotaxis assay relative to control; format: cell-based; design: scale not given: the % may be the effect or the level left; details: filed as antagonist
[37] = as §1; format: toxicity, cell-based, Cricetulus griseus; details: chinese hamster, CHO cells, read-out: Activity

remaining at 0.5 h [1]: 92.9%
clearance [2]: 54 mL/min/kg
Vd [4]: 4.2 L/kg
Ki [6]: 132 nM
remaining at 0.5 h [7]: 74.5%
remaining at 0.5 h [9]: 88.3%
remaining at 0.5 h [10]: 98.8%
Tmax [11]: 1 h
remaining at 0.5 h [12]: 67.8%
remaining at 0.5 h [13]: 98.1%
Tmax [15]: 0.9 h
Activity [16]: inactive
bioavailability [17]: 35%
Cmax [18]: 700 ng/mL
bioavailability [19]: 24%
AUC(0-inf) [20]: 600 ng·h/mL
AUC(0-inf) [23]: 2200 ng·h/mL
AUC(0-inf) [26]: 1500 ng·h/mL
Cmax [27]: 1100 ng/mL
remaining at 0.5 h [29]: 91.7%
remaining at 0.5 h [30]: 94%
solubility [31]: 0.033 µg/mL (≈ 0.0758 µM)
half-life [32]: 1.4 h
Structure (SMILES): CCCCC(=O)N(Cc1ccc(-c2ccc(OCC(=O)O)cc2)cc1)c1cccc(F)c1
Activity (Mus musculus [3]): 46%
Activity (Mus musculus [5]): 59%
Activity (Mus musculus [8]): 35%
Activity (CHO [14]): Non-Toxic
Activity (Mus musculus [21]): 25%
Activity (Mus musculus [22]): 33%
Activity (Mus musculus [24]): 38%
inhibition (CHO [25]): Active
Activity (Mus musculus [28]): 19%

EC50 [33]: 20 nM
Activity [34]: 5 nM
Structure (SMILES): CCCCC(=O)N(Cc1ccc(-c2ccccc2C(=O)O)cc1)c1ccccc1

remaining at 0.5 h [1]: 90.4%
remaining at 0.5 h [7]: 33.5%
remaining at 0.5 h [9]: 84.2%
remaining at 0.5 h [10]: 98.8%
remaining at 0.5 h [12]: 2.2%
remaining at 0.5 h [13]: 96.8%
Activity [36]: 90%
remaining at 0.5 h [29]: 70.1%
remaining at 0.5 h [30]: 92.8%
solubility [31]: < 0.02 µg/mL
Structure (SMILES): CCCCC(=O)N(Cc1ccc(-c2ccc(O)cc2)cc1)c1cccc(F)c1
inhibition (CHO [35]): Active
Activity (CHO [14]): Non-Toxic
inhibition (CHO [25]): Active

Structure (SMILES): CCCCC(=O)N(Cc1ccc(-c2ccc(O)nc2)cc1)c1cccc(F)c1
Activity (CHO [14]): Non-Toxic

Structure (SMILES): CCCCC(=O)N(Cc1ccc(-c2ccc(C(N)=O)cc2)cc1)c1ccccc1
Activity (CHO [14]): Non-Toxic

Structure (SMILES): CCCCC(=O)N(Cc1ccc(-c2ccc(OCC(=O)O)cc2)cc1)c1ccccc1
Activity (CHO [14]): Non-Toxic

Structure (SMILES): CCCCC(=O)N(Cc1ccc(-c2ccccc2CCC(=O)O)cc1)c1ccccc1
inhibition at 10 µM [37]: 4%

Structure (SMILES): CCCCC(=O)N(Cc1ccc(-c2ccc(C(=O)NCC)cc2)cc1)c1ccccc1
Activity (CHO [14]): Non-Toxic

Structure (SMILES): CCCCC(=O)N(Cc1ccc(-c2ccc(C(=O)O)cc2)cc1)c1cccc(F)c1
Activity (CHO [14]): Non-Toxic

Structure (SMILES): CCCCC(=O)N(Cc1ccc(-c2ccc(OCC(=O)O)cc2)cc1)c1cccc(C)c1
Activity (CHO [14]): Non-Toxic

Structure (SMILES): CCCCC(=O)N(Cc1ccc(-c2ccc(C(=O)O)cc2)cc1)c1ccccc1
Activity (CHO [14]): Non-Toxic

Structure (SMILES): CCCCC(=O)N(Cc1ccc(-c2ccc(OC)cc2)cc1)c1cccc(F)c1
inhibition at 10 µM [37]: 7%

Structure (SMILES): CCCCC(=O)N(Cc1ccc(-c2ccc(OC)cc2)cc1)c1cccc(C)c1
Activity (CHO [14]): Non-Toxic

Structure (SMILES): CCCCC(=O)N(Cc1ccc(-c2ccc(O)cc2)nc1)c1cccc(F)c1
Activity (CHO [14]): Non-Toxic

Structure (SMILES): CCCCC(=O)N(Cc1ccc(-c2ccc(C(=O)O)cc2)cc1)c1ccc(F)cc1
Activity (CHO [14]): Non-Toxic
